PubChem BioAssay AID328 (DTP/NCI, 2004)
Several values for one entry are separate records, joined by “and”; a condition that tells them apart may be missing. Identical values can stand only once. Toxic doses and inconclusive results are not listed. How the source made its calls: active means survival T/C of 150% or more; inactive means T/C below 125% in these data.

Test system: BDF1 mice, P388 leukemia ip, median survival T/C
Experiment: NCI In Vivo Anticancer Drug Screen. Data for tumor model P388 Leukemia (intraperitoneal) in B6D2F1 (BDF1) mice
Settings: endpoint: median survival time, higher = longer survival
Summary of the method: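 T/C = treated-group survival ÷ vehicle-control survival; tumour transplanted into mice before dosing.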

[1] = dose: 100.0 mg/kg/injection, schedule: Q01DX001 (ip), vehicle: Klucel (hydroxypropylcellulose) (HPC)
[2] = dose: 200.0 mg/kg/injection, schedule: Q01DX001 (ip), vehicle: Klucel (hydroxypropylcellulose) (HPC)
[3] = dose: 400.0 mg/kg/injection, schedule: Q01DX001 (ip), vehicle: Klucel (hydroxypropylcellulose) (HPC)
[4] = dose: 25.0 mg/kg/injection, schedule: Q01DX009 (ip), vehicle: saline with Tween-80
[5] = dose: 50.0 mg/kg/injection, schedule: Q01DX009 (ip), vehicle: saline with Tween-80
[6] = dose: 100.0 mg/kg/injection, schedule: Q01DX009 (ip), vehicle: saline with Tween-80
[7] = dose: 100.0 mg/kg/injection, schedule: Q04DX003 (ip), vehicle: saline with Tween-80
[8] = dose: 200.0 mg/kg/injection, schedule: Q01DX009 (ip), vehicle: saline with Tween-80
[9] = dose: 200.0 mg/kg/injection, schedule: Q04DX003 (ip), vehicle: saline with Tween-80
[10] = dose: 400.0 mg/kg/injection, schedule: Q04DX003 (ip), vehicle: saline with Tween-80
[11] = dose: 1.0 mg/kg/injection, schedule: Q04DX003 (ip), vehicle: saline

Measured: T/C

O=C(Nc1ccc(NC(=O)Nc2ccc(C3=NCCCN3)cc2)cc1)Nc1ccc(C2=NCCCN2)cc1
inactive: dose: 8.3 mg/kg/injection, schedule: Q04DX003 (ip), vehicle: saline 122 % of control | dose: 12.0 mg/kg/injection, schedule: Q04DX003 (ip), vehicle: saline 122 % of control
active: dose: 19.0 mg/kg/injection, schedule: Q04DX003 (ip), vehicle: saline 165 % of control | dose: 29.0 mg/kg/injection, schedule: Q04DX003 (ip), vehicle: saline 175 % of control | dose: 65.0 mg/kg/injection, schedule: Q04DX003 (ip), vehicle: saline 154 % of control | dose: 95.0 mg/kg/injection, schedule: Q04DX003 (ip), vehicle: saline 163 % of control

O=C(CSCC(=O)c1ccc(Br)cc1)c1ccc(Br)cc1
inactive: [1] 100 % of control | [2] 100 % of control | [3] 100 % of control

CN(C)CSCN(C)C
inactive: [4] 100 % of control | [5] 111 % of control | [6] 102 % of control

Nc1ccc2c(-c3ccc([N+](=O)[O-])cc3)cc(=O)[nH]c2n1
inactive: dose: 200.0 mg/kg/injection, schedule: Q04DX003 (ip), vehicle: saline 100 % of control | dose: 400.0 mg/kg/injection, schedule: Q04DX003 (ip), vehicle: saline 97 % of control

COC1(OC)C2(Cl)CC(=O)C3CC(=O)C3C1(Cl)C(Cl)=C2Cl (stereo unspecified)
inactive: [1] 103 % of control | [2] 107 % of control | [3] 96 % of control

O=C(O)CC[S-].[Ag+]
inactive: [4] 90 % of control | [5] 90 % of control | [6] 86 % of control

Cc1nnc2c(Cl)nccn12
inactive: dose: 100.0 mg/kg/injection, schedule: Q01DX001 (ip), vehicle: saline with Tween-80 106 % of control | dose: 200.0 mg/kg/injection, schedule: Q01DX001 (ip), vehicle: saline with Tween-80 106 % of control

CC(=O)[C@@]1(O)CC[C@H]2[C@@H]3C[C@H](C)C4=CC(=O)CC[C@]4(C)[C@H]3[C@@H](O)C[C@@]21C
inactive: [7] 109 % of control | [8] 122 % of control | [9] 109 % of control | dose: 400.0 mg/kg/injection, schedule: Q01DX009 (ip), vehicle: saline with Tween-80 90 % of control | [10] 118 % of control

CN(C)[C@@H]1C(=O)C(C(N)=O)=C(O)[C@]2(O)C(=O)C3C(=O)c4c(O)ccc(Cl)c4[C@](C)(O)[C@H]3C[C@@H]12 (stereo partly specified)
inactive: dose: 33.0 mg/kg/injection, schedule: Q04DX003 (ip), vehicle: saline sonified 115 % of control

CC[n+]1ccc(Nc2ccc(NC(=O)c3ccc(Nc4cc[n+](CC)c5ccc([N+](=O)[O-])cc45)cc3)cc2)cc1
inactive: dose: 0.44 mg/kg/injection, schedule: Q04DX003 (ip), vehicle: saline 111 % of control | dose: 0.66 mg/kg/injection, schedule: Q04DX003 (ip), vehicle: saline 116 % of control | [11] 100 % of control | dose: 1.5 mg/kg/injection, schedule: Q04DX003 (ip), vehicle: saline 110 % of control
active: dose: 4.0 mg/kg/injection, schedule: Q04DX003 (ip), vehicle: saline 150 % of control | dose: 6.0 mg/kg/injection, schedule: Q04DX003 (ip), vehicle: saline 150 % of control | dose: 22.0 mg/kg/injection, schedule: Q04DX003 (ip), vehicle: saline 152 % of control | dose: 33.0 mg/kg/injection, schedule: Q04DX003 (ip), vehicle: saline 180 % of control | dose: 50.0 mg/kg/injection, schedule: Q04DX003 (ip), vehicle: saline 186 % of control

O=C(c1ccccc1)C1(Br)CCCCC1
inactive: dose: 75.0 mg/kg/injection, schedule: Q01DX009 (ip), vehicle: Klucel (hydroxypropylcellulose) (HPC) 104 % of control | [1] 100 % of control | dose: 100.0 mg/kg/injection, schedule: Q04DX003 (ip), vehicle: Klucel (hydroxypropylcellulose) (HPC) 109 % of control | dose: 150.0 mg/kg/injection, schedule: Q01DX009 (ip), vehicle: Klucel (hydroxypropylcellulose) (HPC) 95 % of control | [2] 104 % of control | dose: 200.0 mg/kg/injection, schedule: Q04DX003 (ip), vehicle: Klucel (hydroxypropylcellulose) (HPC) 104 % of control | dose: 300.0 mg/kg/injection, schedule: Q01DX009 (ip), vehicle: Klucel (hydroxypropylcellulose) (HPC) 86 % of control | [3] 104 % of control | dose: 400.0 mg/kg/injection, schedule: Q04DX003 (ip), vehicle: Klucel (hydroxypropylcellulose) (HPC) 109 % of control

CCCCC#CC(=O)OC
inactive: [4] 116 % of control | [5] 104 % of control | [6] 100 % of control | [8] 114 % of control

CCCCOB(/C=C/Sc1ccccc1)OCCCC
inactive: [6] 120 % of control | [7] 115 % of control | dose: 132.0 mg/kg/injection, schedule: Q01DX009 (ip), vehicle: saline with Tween-80 118 % of control | [9] 120 % of control | dose: 300.0 mg/kg/injection, schedule: Q01DX009 (ip), vehicle: saline with Tween-80 122 % of control | [10] 110 % of control

O=C(Nc1[nH]nc2nccnc12)C(F)(F)F
inactive: [7] 109 % of control | [9] 104 % of control | [10] 118 % of control

COc1ccc(N2CCN(c3ccc([N+](=O)[O-])c4no[n+]([O-])c34)CC2)cc1
inactive: dose: 15.0 mg/kg/injection, schedule: Q04DX003 (ip), vehicle: saline with Tween-80 101 % of control | dose: 30.0 mg/kg/injection, schedule: Q04DX003 (ip), vehicle: saline with Tween-80 100 % of control | dose: 60.0 mg/kg/injection, schedule: Q04DX003 (ip), vehicle: saline with Tween-80 104 % of control

CNC[C@@H](O)c1ccc(O)c(O)c1
inactive: dose: 0.25 mg/kg/injection, schedule: Q04DX003 (ip), vehicle: saline 110 % of control | dose: 0.5 mg/kg/injection, schedule: Q01DX009 (ip), vehicle: saline 91 % of control and 109 % of control | dose: 0.5 mg/kg/injection, schedule: Q04DX003 (ip), vehicle: saline 110 % of control | dose: 1.0 mg/kg/injection, schedule: Q01DX001 (ip), vehicle: saline 95 % of control | dose: 1.0 mg/kg/injection, schedule: Q01DX009 (ip), vehicle: saline 100 % of control | [11] 105 % of control | dose: 2.0 mg/kg/injection, schedule: Q01DX001 (ip), vehicle: saline 104 % of control | dose: 2.0 mg/kg/injection, schedule: Q01DX009 (ip), vehicle: saline 91 % of control and 109 % of control | dose: 2.0 mg/kg/injection, schedule: Q04DX003 (ip), vehicle: saline 86 % of control | dose: 4.0 mg/kg/injection, schedule: Q01DX009 (ip), vehicle: saline 95 % of control and 100 % of control | dose: 9.0 mg/kg/injection, schedule: Q01DX009 (ip), vehicle: saline 95 % of control

CC(=O)OC1(C)CC(C)C(=O)C(C(O)CC2CC(=O)NC(=O)C2)C1 (stereo unspecified)
inactive: dose: 0.25 mg/kg/injection, schedule: Q01DX010 (ip), vehicle: water 90 % of control | dose: 2.16 mg/kg/injection, schedule: Q01DX001 (sc), vehicle: saline 100 % of control | dose: 3.24 mg/kg/injection, schedule: Q01DX001 (ip), vehicle: saline 110 % of control | dose: 3.6 mg/kg/injection, schedule: Q01DX001 (sc), vehicle: saline 123 % of control | dose: 5.4 mg/kg/injection, schedule: Q01DX001 (ip), vehicle: saline 116 % of control | dose: 5.4 mg/kg/injection, schedule: Q04DX003 (ip), vehicle: saline 107 % of control | dose: 6.0 mg/kg/injection, schedule: Q01DX001 (sc), vehicle: saline 118 % of control | dose: 9.0 mg/kg/injection, schedule: Q01DX001 (ip), vehicle: saline 117 % of control | dose: 15.0 mg/kg/injection, schedule: Q01DX001 (ip), vehicle: saline 123 % of control | dose: 778.0 micrograms/kg/injection, schedule: Q04DX003 (sc), vehicle: saline 109 % of control | dose: 1300.0 micrograms/kg/injection, schedule: Q04DX003 (sc), vehicle: saline 116 % of control | dose: 2160.0 micrograms/kg/injection, schedule: Q04DX003 (sc), vehicle: saline 107 % of control | dose: 3600.0 micrograms/kg/injection, schedule: Q04DX003 (sc), vehicle: saline 98 % of control
